Drawing on US8735384B2, “Amino heteroaryl compounds as beta-secretase modulators and methods of use” (Amgen Inc., priority 2010, dated 2014), this text covers IC50 for 20 compounds.

Where two headings read alike, the source gives them in different places.

Assay [1] deals with Aβ40 in conditioned medium of cells stably expressing Amyloid Precursor Protein (APP). Briefly: In vitro BACE cell-based assay (HEK cell assay), Aβ40 sandwich ELISA. The following applies: inhibition of Aβ40, 24 h incubation, read-out: HEK cell assay (IC50 class). In short, it runs like this: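 APP-stably expressing cells (40K/well) grown 24 h, then treated 24 h with 10-point doses from 100 μM or 10 μM top (0.1% DMSO). Secreted Aβ40 quantified by sandwich ELISA (pAb40 capture, biotinylated 6E10 detection, europium time-resolved fluorescence); IC50 from percent inhibition versus concentration.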
Background: An ELISA detects its analyte on a solid surface through an enzyme-linked reagent.

The next assay deals with BACE1 (Homo sapiens, UniProt P56817). As to the kind of experiment: In vitro enzymatic BACE FRET assay. In kind it is biochemical. The following applies: beta secretase enzyme 0.2 nM, FRET substrate 50 nM, pH 4.2; read-out: BACE1 FRET assay (IC50 class). In short, it runs like this:
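Beta-secretase (0.2 nM) was pre-incubated 1 h with serially diluted inhibitor in 0.05 M acetate pH 4.2, 10% DMSO, 100 uM genapol. Then 50 nM quenched peptide FRET substrate was added for 1 h. The reaction was stopped with Tris to neutral pH and fluorescence read ([…]).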

Sequence of BACE1 (P56817 46-501, species assumed): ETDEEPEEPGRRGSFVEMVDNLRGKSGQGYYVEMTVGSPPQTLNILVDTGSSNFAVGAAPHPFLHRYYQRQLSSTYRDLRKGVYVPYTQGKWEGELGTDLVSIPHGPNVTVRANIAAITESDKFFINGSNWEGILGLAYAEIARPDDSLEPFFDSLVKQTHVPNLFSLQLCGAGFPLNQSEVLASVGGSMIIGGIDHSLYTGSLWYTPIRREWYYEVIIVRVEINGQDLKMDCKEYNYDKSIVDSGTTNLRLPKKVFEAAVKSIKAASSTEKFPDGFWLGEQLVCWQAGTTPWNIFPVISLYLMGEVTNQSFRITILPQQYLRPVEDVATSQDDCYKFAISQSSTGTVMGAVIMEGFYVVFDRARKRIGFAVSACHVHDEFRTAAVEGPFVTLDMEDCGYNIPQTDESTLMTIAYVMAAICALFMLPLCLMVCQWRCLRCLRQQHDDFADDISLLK

By IC50 is commonly meant the concentration that inhibits the measured activity by half. In the case of `Nc1nc2ccc(-c3ccccc3-n3ncc4c3CCCC4)cc2cc1N1CCOCC1` [Example 33, 3-morpholino-6-(2-(4,5,6,7-tetrahydro-1H-indazol-1-yl)phenyl)quinolin-2-amine], the IC50 in assay [1] (Homo sapiens, HEK293, 24 h) lay within 1010 to 5000 nM; on BACE1, 100 to 500 nM.
For `Nc1nc2ccc(-c3ccccc3C(=O)C3CCCCC3)cc2cc1N1CCOCC1` [Example 152, (2-(2-amino-3-morpholinoquinolin-6-yl)phenyl)(cyclohexyl)methanone], in that order: 1010 to 5000 nM and under 100 nM.
With `COc1ccc(N(C)C(=O)c2cccc(C)c2-c2ccc3nc(N)c(N4CCOCC4)cc3c2)cc1` [Example 132, 2-(2-amino-3-morpholinoquinolin-6-yl)-N-(4-methoxyphenyl)-N,3-dimethylbenzamide], the IC50 in assay [1] (Homo sapiens, HEK293, 24 h) was 501 to 1000 nM; on BACE1 it was under 100 nM.
In the case of `COc1ccccc1C(N)c1cccc(C)c1-c1ccc2nc(N)c(N3CCOCC3)cc2c1` (stereo not shown) [Example 195, 6-(2-(amino(2-methoxyphenyl)methyl)-6-methylphenyl)-3-morpholinoquinolin-2-amine], the IC50 in assay [1] (Homo sapiens, HEK293, 24 h) is under 100 nM; at BACE1, under 100 nM.
`Cc1cccc(C(c2ccccc2)n2ccnc2)c1-c1ccc2nc(N)c(N3CCOCC3)cc2c1` (stereo not shown) [Example 8, 6-(2-((1H-imidazol-1-yl)(phenyl)methyl)-6-methylphenyl)-3-morpholinoquinolin-2-amine]: the IC50 fell in the range of 1010 to 5000 nM in assay [1] (Homo sapiens, HEK293, 24 h) and 1010 to 5000 nM on BACE1.
`Cc1cccc(C(=O)N2C[C@H]3CC[C@@H]2C3)c1-c1ccc2nc(N)c(N3CCOCC3)cc2c1` [Example 68, (2-(2-amino-3-morpholinoquinolin-6-yl)-3-methylphenyl)((1R,4S)-2-azabicyclo[2.2.1]heptan-2-yl)methanone]: the IC50 was 100 to 500 nM in assay [1] (Homo sapiens, HEK293, 24 h) and under 100 nM at BACE1.
Consider `Cc1cccc(Cc2cnccn2)c1-c1ccc2nc(N)c(N3CCOCC3)cc2c1` [Example 37, 6-(2-methyl-6-(pyrazin-2-ylmethyl)phenyl)-3-morpholinoquinolin-2-amine], for which the IC50 in assay [1] (Homo sapiens, HEK293, 24 h) fell in the range of 1010 to 5000 nM; on BACE1, 501 to 1000 nM.
For `Cc1cccc(C(=O)N2CCCC(C)(C)C2)c1-c1ccc2nc(N)c(N3CCOCC3)cc2c1` [Example 86, (2-(2-amino-3-morpholinoquinolin-6-yl)-3-methylphenyl)(3,3-dimethylpiperidin-1-yl)methanone], in that order: 100 to 500 nM and under 100 nM.
Taken in the same sequence, the figures for `Nc1nc2ccc(-c3c(C(=O)N4CCCC4)cccc3C(F)(F)F)cc2cc1N1CCOCC1` [Example 155, (2-(2-amino-3-morpholinoquinolin-6-yl)-3-(trifluoromethyl)phenyl)(pyrrolidin-1-yl)methanone] were 1010 to 5000 nM and 100 to 500 nM.
As to `CC(C)(C)CCc1cccc(C(=O)N2CCCC2)c1-c1ccc2nc(N)c(N3C[C@@H]4C[C@H]3CO4)cc2c1` [Example 165, (2-(2-amino-3-((1S,4S)-2-oxa-5-azabicyclo[2.2.1]heptan-5-yl)quinolin-6-yl)-3-(3,3-dimethylbutyl)phenyl)(pyrrolidin-1-yl)methanone], the concentration for half-maximal inhibition (IC50) in assay [1] (Homo sapiens, HEK293, 24 h) was under 100 nM; on BACE1, under 100 nM.
As for `Cc1cccc(N2CCOCC2=O)c1-c1ccc2nc(N)c(N3CCOCC3)cc2c1` [Example 48, 4-(2-(2-amino-3-morpholinoquinolin-6-yl)-3-methylphenyl)morpholin-3-one], the IC50 in assay [1] (Homo sapiens, HEK293, 24 h) is 1010 to 5000 nM; at BACE1 it was 501 to 1000 nM.
On to `Nc1nc2ccc(-c3c(CC4OCCO4)cccc3C(=O)N3CCCC3)cc2cc1N1CCOCC1` [Example 192, (3-((1,3-dioxolan-2-yl)methyl)-2-(2-amino-3-morpholinoquinolin-6-yl)phenyl)(pyrrolidin-1-yl)methanone], for which the IC50 was 100 to 500 nM in assay [1] (Homo sapiens, HEK293, 24 h) and under 100 nM at BACE1.
Taken in the same sequence, the figures for `Nc1nc2ccc(-c3ccccc3C(=O)CC3CCCC3)cc2cc1N1CCOCC1` [Example 156, 1-(2-(2-amino-3-morpholinoquinolin-6-yl)phenyl)-2-cyclopentylethanone] were 1010 to 5000 nM and under 100 nM.
Taken in the same sequence, the figures for `CCC1CCCN1C(=O)c1cccc(C)c1-c1ccc2nc(N)c(N3CCOCC3)cc2c1` (stereo not shown) [Example 65, (2-(2-amino-3-morpholinoquinolin-6-yl)-3-methylphenyl)(2-ethylpyrrolidin-1-yl)methanone] were 501 to 1000 nM and under 100 nM.
Consider `Cc1cccc(C(=O)N2CCCC2C(C)(C)C)c1-c1ccc2nc(N)c(N3CCOCC3)cc2c1` (stereo not shown) [Example 64, (2-(2-amino-3-morpholinoquinolin-6-yl)-3-methylphenyl)(2-tert-butylpyrrolidin-1-yl)methanone], for which the half-inhibitory concentration (IC50) in assay [1] (Homo sapiens, HEK293, 24 h) was 501 to 1000 nM; on BACE1 it was under 100 nM.
Taken in the same sequence, the figures for `Cc1cccc(CCC(C)(C)C)c1-c1ccc2nc(N)c(N3CCOCC3)cc2c1` [Example 172, 6-(2-(3,3-dimethylbutyl)-6-methylphenyl)-3-morpholinoquinolin-2-amine] were 1010 to 5000 nM and under 100 nM.
As to `Cc1cccc(C(=O)n2ccc3ccccc32)c1-c1ccc2nc(N)c(N3CCOCC3)cc2c1` [Example 26, (2-(2-amino-3-morpholinoquinolin-6-yl)-3-methylphenyl)(1H-indol-1-yl)methanone], the half-inhibitory concentration (IC50) in assay [1] (Homo sapiens, HEK293, 24 h) was over 5000 nM; on BACE1 it was 100 to 500 nM.
For `Cc1ccc(C2(C)CN(c3cc4cc(-c5c(C)cccc5C(=O)N5CCCC5)ccc4nc3N)CCO2)cc1` (stereo not shown) [Example 217, (2-(2-amino-3-(2-methyl-2-p-tolylmorpholino)quinolin-6-yl)-3-methylphenyl)(pyrrolidin-1-yl)methanone], in that order: 1010 to 5000 nM and 100 to 500 nM.
For “2-(2-amino-3-(2,6-dimethylmorpholino)quinolin-6-yl)-N-ethyl-3-methyl-N-propylbenzamide [Example 216]”, the IC50 in assay [1] was 1010 to 5000 nM; at BACE1, under 100 nM.
Consider `Cc1cccc(C(=O)N2CCC(F)(F)C2)c1-c1ccc2nc(N)c(N3CCOCC3)cc2c1` [Example 98, (2-(2-amino-3-morpholinoquinolin-6-yl)-3-methylphenyl)(3,3-difluoropyrrolidin-1-yl)methanone], for which the half-maximal inhibitory concentration (IC50) in assay [1] (Homo sapiens, HEK293, 24 h) was 100 to 500 nM; at BACE1, under 100 nM.
